Test results published in patent US8952024B2, “Herbicidal pyrimidone derivatives” (E I du Pont de Nemours and Company, priority 2009, dated 2015).

Assays:
Type in all cases: in vivo
[1] = tested on: wheat (Triticum aestivum); experiment: Test B pre-/postemergence plant response
How it was run: (§1)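 Visual injury, 0–100 scale (100 = complete control), rated against controls after 13 to 15 days in greenhouse. Pre-emergence: seeds in loam/sand soil, treated at planting. Post-emergence: 1- to 4-leaf plants (2 to 18 cm) in peat/vermiculite medium. Compounds formulated in non-phytotoxic solvent with surfactant.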

[2] = tested on: giant foxtail (Setaria faberii); experiment: Test B pre-/postemergence plant response
How it was run: as §1

[3] = tested on: morningglory (Ipomoea coccinea); experiment: Test B pre-/postemergence plant response
How it was run: as §1

[4] = tested on: bermudagrass (Cynodon dactylon); experiment: Test B pre-/postemergence plant response
How it was run: as §1

corn (Zea mays) = experiment: Test B pre-/postemergence plant response
How it was run: as §1

[5] = tested on: goosegrass (Eleusine indica); experiment: Test B pre-/postemergence plant response
How it was run: as §1

[6] = tested on: Italian ryegrass (Lolium multiflorum); experiment: Test B pre-/postemergence plant response
How it was run: as §1

[7] = tested on: ragweed (common ragweed, Ambrosia elatior); experiment: Test B pre-/postemergence plant response
How it was run: as §1

[8] = tested on: johnsongrass (Sorghum halepense); experiment: Test B pre-/postemergence plant response
How it was run: as §1

[9] = tested on: green foxtail (Setaria viridis); experiment: Test B pre-/postemergence plant response
How it was run: as §1

[10] = tested on: blackgrass (Alopecurus myosuroides); experiment: Test B pre-/postemergence plant response
How it was run: as §1

[11] = tested on: pigweed (Amaranthus retroflexus); experiment: Test B pre-/postemergence plant response
How it was run: as §1

[12] = tested on: downy bromegrass (Bromus tectorum); experiment: Test B pre-/postemergence plant response
How it was run: as §1

soybean (Glycine max) = experiment: Test B pre-/postemergence plant response
How it was run: as §1

[13] = tested on: velvetleaf (Abutilon theophrasti); experiment: Test B pre-/postemergence plant response
How it was run: as §1

[14] = tested on: chickweed (Stellaria media); experiment: Test B postemergence plant response
How it was run: (§2)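 Plants grown in peat/vermiculite medium were sprayed postemergence at 2–18 cm height (1- to 4-leaf stage). After 13–15 days in the greenhouse, response was rated visually against untreated controls on a 0–100 scale (0 no effect, 100 complete control).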

[15] = tested on: canarygrass (Phalaris minor); experiment: Test B postemergence plant response
How it was run: as §2

[16] = tested on: winter barley (Hordeum vulgare); experiment: Test B postemergence plant response
How it was run: as §2

[17] = 31 g ai/ha, postemergence, scale 0 to 100, 0 is no effect, 100 is complete control
[18] = 250 g ai/ha, Preemergence, 0 to 100 scale
[19] = Postemergence, 62 g ai/ha, scale 0 (no effect) to 100 (complete control), 13 to 15 days
[20] = Postemergence, 125 g ai/ha, visual rating after 13 to 15 days, scale 0 (no effect) to 100 (complete control)
[21] = Preemergence, 31 g ai/ha, scale 0 to 100 (0 no effect, 100 complete control)
[22] = Preemergence, 125 g ai/ha, 0 to 100 scale
[23] = Postemergence, 250 g ai/ha, scale 0 to 100
[24] = Preemergence, 62 g ai/ha, scale 0 to 100, 0 no effect, 100 complete control

Q: With CCn1c(-c2ccccc2)ncc(C(=O)C2=C(O)CCCC2=O)c1=O [Compound 49] as the compound, how does the “Plant response rating, Wheat” value [1, 17] read?
A: 0

Q: What about the “Plant response rating, Wheat” value [1, 18] of the same compound?
A: 0

Q: What about the “Plant response rating, Wheat” value [1, 19] of the same compound?
A: 5

Q: What about the “Plant response rating, Wheat” value [1, 20] of the same compound?
A: 15

Q: What about the “Plant response rating, Wheat” value [1, 21] of the same compound?
A: 0

Q: What about the “Wheat plant response rating” value [1, 22] of the same compound?
A: 0

Q: And the “Plant response rating, Foxtail, Giant” value [2, 17]?
A: 45

Q: And the “Plant response rating, Foxtail, Giant” value [2, 18]?
A: 45

Q: And the “Plant response rating, Foxtail, Giant” value [2, 19]?
A: 60

Q: And the “Plant response rating, Foxtail, Giant” value [2, 20]?
A: 70

Q: And the “Foxtail, Giant plant response rating” value [2, 23]?
A: 75

Q: What about the “Plant response rating, Foxtail, Giant” value [2, 21] of the same compound?
A: 0

Q: And the “Plant response rating, Foxtail, Giant” value [2, 24]?
A: 0

Q: What about the “Foxtail, Giant plant response rating” value [2, 22] of the same compound?
A: 20

Q: What about the “Plant response rating, Morningglory” value [3, 17] of the same compound?
A: 65

Q: What about the “Plant response rating, Morningglory” value [3, 18] of the same compound?
A: 85

Q: And the “Plant response rating, Morningglory” value [3, 19]?
A: 80

Q: What about the “Plant response rating, Morningglory” value [3, 20] of the same compound?
A: 80

Q: What about the “Plant response rating, Morningglory” value [3, 21] of the same compound?
A: 45

Q: What about the “Plant response rating, Morningglory” value [3, 24] of the same compound?
A: 80

Q: What about the “Morningglory plant response rating” value [3, 22] of the same compound?
A: 80

Q: And the “Plant response rating, Bermudagrass” value [4, 17]?
A: 75

Q: And the “Plant response rating, Bermudagrass” value [4, 18]?
A: 100

Q: And the “Plant response rating, Bermudagrass” value [4, 19]?
A: 85

Q: And the “Plant response rating, Bermudagrass” value [4, 20]?
A: 95

Q: What about the “Bermudagrass plant response rating” value [4, 23] of the same compound?
A: 98

Q: What about the “Bermudagrass plant response rating” value [4, 22] of the same compound?
A: 98

Q: And the “Plant response rating, Corn” value (corn (Zea mays); [17])?
A: 5

Q: What about the “Plant response rating, Corn” value (corn (Zea mays); [18]) of the same compound?
A: 0

Q: What about the “Plant response rating, Corn” value (corn (Zea mays); [19]) of the same compound?
A: 5

Q: And the “Plant response rating, Corn” value (corn (Zea mays); [20])?
A: 5

Q: What about the “Corn plant response rating” value (corn (Zea mays); [23]) of the same compound?
A: 15

Q: And the “Plant response rating, Corn” value (corn (Zea mays); [21])?
A: 0

Q: And the “Plant response rating, Corn” value (corn (Zea mays); [24])?
A: 0

Q: And the “Corn plant response rating” value (corn (Zea mays); [22])?
A: 0

Q: And the “Plant response rating, Goosegrass” value [5, 17]?
A: 65

Q: What about the “Plant response rating, Goosegrass” value [5, 18] of the same compound?
A: 100

Q: And the “Plant response rating, Goosegrass” value [5, 19]?
A: 70

Q: What about the “Plant response rating, Goosegrass” value [5, 20] of the same compound?
A: 70

Q: And the “Goosegrass plant response rating” value [5, 23]?
A: 70

Q: And the “Plant response rating, Goosegrass” value [5, 21]?
A: 20

Q: And the “Goosegrass plant response rating” value [5, 22]?
A: 98

Q: What about the “Plant response rating, Ryegrass, Italian” value [6, 17] of the same compound?
A: 0

Q: And the “Plant response rating, Ryegrass, Italian” value [6, 18]?
A: 5

Q: What about the “Plant response rating, Ryegrass, Italian” value [6, 19] of the same compound?
A: 0

Q: What about the “Plant response rating, Ryegrass, Italian” value [6, 20] of the same compound?
A: 0

Q: What about the “Plant response rating, Ryegrass, Italian” value [6, 21] of the same compound?
A: 0

Q: What about the “Ryegrass, Italian plant response rating” value [6, 22] of the same compound?
A: 0

Q: And the “Plant response rating, Ragweed” value [7, 17]?
A: 75

Q: And the “Plant response rating, Ragweed” value [7, 18]?
A: 95

Q: What about the “Plant response rating, Ragweed” value [7, 19] of the same compound?
A: 80

Q: What about the “Plant response rating, Ragweed” value [7, 20] of the same compound?
A: 80

Q: What about the “Plant response rating, Ragweed” value [7, 21] of the same compound?
A: 70

Q: And the “Ragweed plant response rating” value [7, 22]?
A: 80

Q: What about the “Plant response rating, Johnsongrass” value [8, 17] of the same compound?
A: 0

Q: And the “Plant response rating, Johnsongrass” value [8, 18]?
A: 10

Q: And the “Plant response rating, Johnsongrass” value [8, 19]?
A: 0

Q: What about the “Plant response rating, Johnsongrass” value [8, 20] of the same compound?
A: 10

Q: What about the “Johnsongrass plant response rating” value [8, 23] of the same compound?
A: 10

Q: What about the “Plant response rating, Johnsongrass” value [8, 21] of the same compound?
A: 0

Q: And the “Plant response rating, Johnsongrass” value [8, 24]?
A: 0

Q: What about the “Johnsongrass plant response rating” value [8, 22] of the same compound?
A: 0

Q: And the “Plant response rating, Foxtail, Green” value [9, 17]?
A: 50

Q: What about the “Plant response rating, Foxtail, Green” value [9, 18] of the same compound?
A: 30

Q: And the “Plant response rating, Foxtail, Green” value [9, 19]?
A: 50

Q: What about the “Plant response rating, Foxtail, Green” value [9, 20] of the same compound?
A: 75

Q: What about the “Foxtail, Green plant response rating” value [9, 23] of the same compound?
A: 90

Q: What about the “Plant response rating, Foxtail, Green” value [9, 21] of the same compound?
A: 0

Q: And the “Plant response rating, Foxtail, Green” value [9, 24]?
A: 0

Q: What about the “Foxtail, Green plant response rating” value [9, 22] of the same compound?
A: 5

Q: And the “Plant response rating, Blackgrass” value [10, 17]?
A: 0

Q: And the “Plant response rating, Blackgrass” value [10, 18]?
A: 0

Q: And the “Plant response rating, Blackgrass” value [10, 19]?
A: 0

Q: And the “Plant response rating, Blackgrass” value [10, 20]?
A: 0

Q: What about the “Blackgrass plant response rating” value [10, 23] of the same compound?
A: 30

Q: And the “Plant response rating, Blackgrass” value [10, 21]?
A: 0

Q: What about the “Plant response rating, Blackgrass” value [10, 24] of the same compound?
A: 0

Q: What about the “Blackgrass plant response rating” value [10, 22] of the same compound?
A: 0

Q: And the “Plant response rating, Pigweed” value [11, 17]?
A: 80

Q: What about the “Plant response rating, Pigweed” value [11, 18] of the same compound?
A: 100

Q: What about the “Plant response rating, Pigweed” value [11, 19] of the same compound?
A: 90

Q: And the “Plant response rating, Pigweed” value [11, 20]?
A: 95

Q: And the “Plant response rating, Pigweed” value [11, 21]?
A: 100

Q: And the “Pigweed plant response rating” value [11, 22]?
A: 100

Q: What about the “Plant response rating, Bromegrass, Downy” value [12, 17] of the same compound?
A: 0

Q: And the “Plant response rating, Bromegrass, Downy” value [12, 19]?
A: 0

Q: What about the “Plant response rating, Bromegrass, Downy” value [12, 20] of the same compound?
A: 0

Q: What about the “Bromegrass, Downy plant response rating” value [12, 23] of the same compound?
A: 5

Q: What about the “Plant response rating, Bromegrass, Downy” value [12, 21] of the same compound?
A: 0

Q: And the “Plant response rating, Bromegrass, Downy” value [12, 24]?
A: 0

Q: What about the “Bromegrass, Downy plant response rating” value [12, 22] of the same compound?
A: 0

Q: And the “Plant response rating, Soybean” value (soybean (Glycine max); [17])?
A: 55

Q: What about the “Plant response rating, Soybean” value (soybean (Glycine max); [18]) of the same compound?
A: 85

Q: And the “Plant response rating, Soybean” value (soybean (Glycine max); [19])?
A: 65

Q: And the “Plant response rating, Soybean” value (soybean (Glycine max); [20])?
A: 85

Q: What about the “Plant response rating, Soybean” value (soybean (Glycine max); [21]) of the same compound?
A: 0

Q: What about the “Soybean plant response rating” value (soybean (Glycine max); [22]) of the same compound?
A: 85

Q: What about the “Plant response rating, Velvetleaf” value [13, 17] of the same compound?
A: 90

Q: What about the “Plant response rating, Velvetleaf” value [13, 18] of the same compound?
A: 100

Q: And the “Plant response rating, Velvetleaf” value [13, 19]?
A: 95

Q: What about the “Plant response rating, Velvetleaf” value [13, 20] of the same compound?
A: 98

Q: What about the “Plant response rating, Velvetleaf” value [13, 21] of the same compound?
A: 95

Q: And the “Velvetleaf plant response rating” value [13, 22]?
A: 100

Q: What about the “Plant response rating, Chickweed” value [14, 17] of the same compound?
A: 75

Q: And the “Plant response rating, Chickweed” value [14, 19]?
A: 75

Q: What about the “Plant response rating, Chickweed” value [14, 20] of the same compound?
A: 80

Q: What about the “Chickweed plant response rating” value [14, 23] of the same compound?
A: 90

Q: And the “Plant response rating, Canarygrass” value [15, 17]?
A: 0

Q: What about the “Plant response rating, Canarygrass” value [15, 19] of the same compound?
A: 0

Q: What about the “Plant response rating, Canarygrass” value [15, 20] of the same compound?
A: 0

Q: What about the “Canarygrass plant response rating” value [15, 23] of the same compound?
A: 0

Q: And the “Plant response rating, Barley” value [16, 17]?
A: 0

Q: What about the “Plant response rating, Barley” value [16, 19] of the same compound?
A: 0

Q: What about the “Plant response rating, Barley” value [16, 20] of the same compound?
A: 0

Q: What about the “Barley plant response rating” value [16, 23] of the same compound?
A: 0
